The text below walks through data of patent US20110086388A1, “CHAPERONE-ASSISTED PROTEIN EXPRESSION AND METHODS OF USE” (Duke University, priority 2009, published 2011).

Assay [1] relates to Actinoplanes ATCC 33076 Ramo16, NAD dependent reductase (native protein, no fusion tag). As to the kind of experiment: Ramo16 activity assay (continuous spectrophotometric, decrease in NADH absorbance at 340 nm). The assay is classed as biochemical. Conditions: pseudo-substrate acetoacetyl-CoA varied 0 to 5 mM; 250 μM NADH fixed; 10 μM Ramo16; 50 mM HEPES, pH 7.6, 100 mM NaCl; 25° C. As for the experimental part:
FIG. 8 is a kinetic profile of Ramo16 (10 μM) with varied acetoacetyl-CoA (0 to 5 mM) and fixed NADH (250 μM).
Ramo16, the NAD dependent reductase, was expressed natively in autoinduction media to prevent the formation of insoluble aggregates. Expression in a His6-tagged expression vector led to protein instability and ultimately precipitation.
Cloning and Purification of Ramo16: The ramo16 gene was obtained by PCR amplification from cosmid DNA (OO8CK) from Actinoplanes ATCC 33076 using Herculase Hot Start Polymerase with the following primers: the C-terminal his-tag were Ramo16C-F (5′-GGGAATTCCATATGCGCTTGACCGGCAAGACCCCG-3′), Ramo16C-R (5′-CCCAAGCTTGCGCGTGGTGAATCCGCCGTCGAC-3′, and the N-terminal his-tag were Ramo16N-F (5′-TATACCATGGCTCGCTTGACCGGCAAGAC-3′). and Ramo16N-R (5′-TATAGGATCCTCAGCGCGTGGTGAATCCG-3′). The amplified gene products were cloned into the Zero Blunt Cloning Vector and sequenced. […] Fractions were analyzed by SDS-PAGE and the band corresponding to Ramo16 was excised and the identity of the protein confirmed by Q-TOF. […]
Ramo 16 Activity Assay: Initial rates of Ramo16 were determined by monitoring the decrease in absorbance of NADH at 340 nm at 25° C. The 100 μL reactions were monitored in half-area clear bottom Corning plates using a 96 well plate SpectraMax Molecular Devices spectrophotometer. […]

Assay [2] has as its system methicillin-resistant Staphylococcus aureus (MRSA). The note with it: cited from earlier work.
For assay [3], the system named is vancomycin-resistant Enterococcus faecium (VRE). Conditions: cited from earlier work.

By Km is commonly meant the concentration of substrate that gives half-maximal velocity. As usually defined, the kcat is the number of substrate molecules converted per active site and unit of time at saturation.

In the case of `CC(=O)CC(=O)SCCNC(=O)CCNC(=O)[C@H](O)C(C)(C)COP(=O)(O)OP(=O)(O)OC[C@H]1O[C@@H](n2cnc3c(N)ncnc32)[C@H](O)[C@@H]1OP(=O)(O)O` [acetoacetyl-Coenzyme A], in assay [1], the Km turned out to be 2350 ± 390 µM and the kcat came out at 15.7 ± 1.2 s⁻¹.

ramoplanin A2: the “effectiveness against MRSA” value in assay [2] was “highly effective”. Besides, in assay [3], the “effectiveness against VRE” value is on record as “highly effective”.
